Among the data in EP0904260B1, “INHIBITION OF MATRIX METALLOPROTEASES BY 2-(OMEGA-AROYLALKYL)-4-BIARYL-OXOBUTYRIC ACIDS” (Bayer Corporation, priority 1996, dated 1997) are IC50 values, retold here.

Molecules are shown by their SMILES. pIC50: −log10 of the molar value.

The target in one assay is T1, MMP-3 (Homo sapiens, UniProt P08254).
T1 construct: made in house; host or cells: CHO cells
The class given is biochemical. As to conditions: 6 µM P218 substrate, approximately 0.5 to 0.8 nM MMP, 25 min. at 37°C, pH 6.5. The source says:
(§1) The P218 quenched fluorescence assay (Microfluorometric Profiling Assay) is a modification of that originally described by Knight, et al., FEBS Lett. 296, 263, 1992 for a related substance and a variety of matrix metalloproteinases (MMPs) in cuvettes. The assay was run with each invention compound and the three MMPs. MMP-3, MMP-9 and MMP-2, analyzed in parallel. adapted as follows for a 96-well microtiter plate and a Hamilton AT® workstation.
(§2) P218 Fluorogenic Substrate: P218 is a synthetic substrate containing a 4-acetyl-7-methoxycoumarin ( MCA) group in the N-terminal position and a 3-[2,4-dinitrophenyl]-L-2,3-diaminopropionyl (DPA) group internally. This is a modification of a peptide reported by Knight (1992) that was used as a substrate for matrix metalloptoteinases. Once the P218 peptide is cleaved (putative clip site at the Ala-Leu bond), the fluorescence of the MCA group can be detected on a fluorometer with excitation at 328 nm and emission at 393 nm. P218 is currently being produced by BACHEM Bioscience, Inc.exclusively for the Bayer Corporation. P218 has the structure: [formula]
Recombinant Human CHO Pro-MMP-3: Human CHO pro-stromelysin-257 (pro-MMP-3) was expressed and purified as described by Housley, et al., J. Biol. Chem. 268, 4481, 1993.
Activation of Pro-MMP-3: Pro-MMP-3 at 1.72 µM (100 µg/mL) in 5 mM Tris at pH 7.5, 5 mM CaCl2, 25 mM NaCl, and 0.005% Brij-35 (MMP-3 activation buffer) was activated by incubation with TPCK (N-tosyl-(L)-phenylalanine chioromethyl ketone) trypsin (1:100 w/w to pro-MMP-3) at 25 °C for 30 min. The reaction was stopped by addition of soybean trypsin inhibitor (SBTI; 5:1 w/w to trypsin concentration). This activation protocol results in the formation of 45 kDa active MMP-3, which still contains the C-tenninal portion of the enzyme.
(§3) Hamiltion Microlab AT Plus: The MMP-Profiling Assay was performed robotically on a Hamilton MicroLab AT Plus®. The Hamilton was programmed to: (1) serially dilute up to 11 potential inhibitors automatically from a 2.5 mM stock in 100% DMSO; (2) distribute substrate followed by inhibitor into a 96 well Cytofluor plate; and (3) add a single enzyme to the plate with mixing to start the reaction. Subsequent plates for each additional enzyme were prepared automatically by beginning the program at the substrate addition point, remixing the diluted inhibitors and beginning the reaction by addition of enzyme. In this way, all MMP assays were done using the same inhibitor dilutions.
(§4) Millipore Cytofluor II. Following incubation, the plate was read on a Cytofluor II fluoromeiric plate reader with excitation at 340 nm and emission at 395 nm with the gain set at 80.
(§5) Microfluorometric Reaction Buffer (MRB): Dilution of test compounds, enzymes, and P218 substrate for the microfluorometric assay were made in microfluorometric reaction buffer consisting of 50 mM 2-(N-morpholino)ethanesulfonic acid (MES) at pH 6.5 with 10 mM CaCl2, 150 mM NaCl. 0.005% Brij-35 and 1% DMSO.
(§6) MMP Microfluorometric Profiling Assay. The assay was done with a final substrate concentration of 6 µM P218 and approximately 0.5 to 0.8 nM MMP with variable drug concentrations. The Hamilton was programmed to serially dilute up to 11 compounds from a 2.5 mM stock (100% DMSO) to 10x the final compounds concentrations in the assay. Initially, the instrument delivered various amounts of microfluorometric reaction buffer (MRB) to a 96 tube rack of 1 mL Marsh dilution tubes. The instrument then picked up 20 µL of inhibitor (2.5 mM) from the sample rack and mixes it with a buffer in row A of the Marsh rack, resulting in a 50 µM drug concentration. The inhibitors were then serially diluted to 10, 5, 1, .2, 0.05 and 0.01 µM. […] The instrument re-mixed and loads 14.5 µL of diluted compound from rows A to G in the Marsh rack to corresponding rows in the microtiter plate. (Row H represents the "background" row and 39.5 µL of MRB was delivered in placed of drug or enzyme). […]

Another assay addresses T2, MMP-2 (Homo sapiens, UniProt P08253).
T2 sequence (P08253 110-660): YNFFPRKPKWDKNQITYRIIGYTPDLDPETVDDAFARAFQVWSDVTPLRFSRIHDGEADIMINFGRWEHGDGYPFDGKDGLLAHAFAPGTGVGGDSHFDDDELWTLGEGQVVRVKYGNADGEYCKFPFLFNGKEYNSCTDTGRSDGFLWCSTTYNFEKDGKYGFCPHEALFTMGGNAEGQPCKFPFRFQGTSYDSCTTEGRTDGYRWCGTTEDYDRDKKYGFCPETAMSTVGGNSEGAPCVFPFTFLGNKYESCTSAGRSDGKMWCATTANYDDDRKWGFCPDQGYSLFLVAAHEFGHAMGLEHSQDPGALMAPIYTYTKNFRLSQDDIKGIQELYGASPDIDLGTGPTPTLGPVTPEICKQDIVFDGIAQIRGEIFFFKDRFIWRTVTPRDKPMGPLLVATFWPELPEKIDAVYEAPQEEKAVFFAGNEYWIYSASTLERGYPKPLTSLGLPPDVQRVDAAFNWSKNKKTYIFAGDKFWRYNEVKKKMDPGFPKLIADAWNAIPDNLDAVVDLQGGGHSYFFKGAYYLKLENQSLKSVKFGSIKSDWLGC
As to the kind of experiment: biochemical.

The target of another assay is T3, MMP-9 (Homo sapiens, UniProt P14780).
T3 construct: made in house
T3 sequence (P14780 107-707 limits assumed): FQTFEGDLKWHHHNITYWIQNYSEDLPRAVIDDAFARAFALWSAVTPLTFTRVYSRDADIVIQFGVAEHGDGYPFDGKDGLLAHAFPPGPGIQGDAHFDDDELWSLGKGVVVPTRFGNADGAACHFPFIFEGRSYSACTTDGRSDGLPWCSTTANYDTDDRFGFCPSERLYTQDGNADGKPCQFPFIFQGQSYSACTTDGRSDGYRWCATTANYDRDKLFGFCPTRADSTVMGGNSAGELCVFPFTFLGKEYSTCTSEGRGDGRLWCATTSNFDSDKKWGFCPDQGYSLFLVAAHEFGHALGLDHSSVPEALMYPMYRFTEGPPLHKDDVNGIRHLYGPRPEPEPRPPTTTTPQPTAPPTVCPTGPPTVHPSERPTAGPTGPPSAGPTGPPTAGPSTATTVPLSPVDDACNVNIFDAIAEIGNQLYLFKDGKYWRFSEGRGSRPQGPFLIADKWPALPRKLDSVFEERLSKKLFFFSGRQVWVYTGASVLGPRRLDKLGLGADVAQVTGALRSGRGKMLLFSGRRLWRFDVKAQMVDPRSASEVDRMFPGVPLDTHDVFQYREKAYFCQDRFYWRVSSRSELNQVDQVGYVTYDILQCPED
Format: biochemical. As to conditions: 6 µM P218 substrate, approximately 0.5 to 0.8 nM MMP, 25 min. at 37°C, pH 6.5.
Excerpt: as §1, §2
Recombinant Human Pro-MMP-9: Human pro-gelatinase B (pro-MMP-9) derived from U937 cDNA as described by Wilhelm, et al. J. Biol. Chem. 264, 17213, 1989 was expressed as the full-length form using a baculovirus protein expression system. The pro-enzyme was purified using methods previously described by Hibbs, et al. J. Biol. Chem. 260, 2493, 1984.
Activation of Pro-MMP-9: […] 20 µg/mL in 50 mM Tris at pH 7.4, 10mM […], 150 mM NaCl, and 0.005% Brij-35 (MMP-9 activation buffer) was activated by incubation with 0 5 mM p-aminophenylmercuric acetate (APMA) for 3.5 h at 37 °C. The enzyme was dialyzed against the same buffer to remove the APMA.
as §3, §4, §5, §6

T1 sequence (P08254 100-477): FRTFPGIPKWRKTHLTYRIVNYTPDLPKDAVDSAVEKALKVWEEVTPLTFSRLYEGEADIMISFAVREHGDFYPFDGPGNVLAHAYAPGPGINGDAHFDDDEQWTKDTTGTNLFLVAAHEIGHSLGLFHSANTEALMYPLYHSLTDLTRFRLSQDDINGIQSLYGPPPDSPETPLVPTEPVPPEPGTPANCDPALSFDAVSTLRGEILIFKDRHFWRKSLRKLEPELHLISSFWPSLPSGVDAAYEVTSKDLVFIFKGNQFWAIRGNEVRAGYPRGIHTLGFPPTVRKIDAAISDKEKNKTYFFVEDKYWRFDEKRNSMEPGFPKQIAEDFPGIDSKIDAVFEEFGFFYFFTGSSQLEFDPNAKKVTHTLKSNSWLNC

Turning to `COc1ccc(C(=O)CCCC(CC(=O)c2ccc(-c3ccc(Cl)cc3)cc2)C(=O)O)c(OC)c1` (stereo not drawn) [XII, 4'-chloro-α-[4-(2,4-dimethoxyphenyl)-4-oxobutyl]-γ-oxo-[1,1'-biphenyl]-4-butanoic acid], the pIC50 against MMP-3 was 6.94; against MMP-2 it was 7.60; against MMP-9 it was 6.65.

For `COc1ccc(C(=O)CCCC(CC(=O)c2ccc(-c3ccc(Cl)cc3)cc2)C(=O)O)cc1` (stereo not drawn) [Compound X, 4'-chloro-α-[4-(4-methoxyphenyl)-4-oxobutyl]-γ-oxo-[1,1'-biphenyl]-4-butanoic acid], the pIC50 against MMP-3 was 6.91; at MMP-2 it was 7.60; on MMP-9, 6.84.

`COc1cc(OC)c(C(=O)CCCC(CC(=O)c2ccc(-c3ccc(Cl)cc3)cc2)C(=O)O)c(OC)c1` (stereo not drawn) [V]: the pIC50 on MMP-3 was 7.14; at MMP-2 it was 8.09; against MMP-9, 6.88.

Consider `Cc1cc(C)c(C(=O)CCCC(CC(=O)c2ccc(-c3ccc(Cl)cc3)cc2)C(=O)O)c(C)c1` (stereo not drawn) [VI], for which the pIC50 against MMP-3 is 7.40; against MMP-2, 7.51; against MMP-9 it was 5.88.

For the compound `Cc1ccc(C(=O)CCCC(CC(=O)c2ccc(-c3ccc(Cl)cc3)cc2)C(=O)O)cc1` (stereo not drawn) [VIII, 4'-chloro-α-[4-(4-methylphenyl)-4-oxobutyl]-γ-oxo-[1,1'-biphenyl]-4-butanoic acid], the results for the pIC50 against MMP-3, against MMP-2 and on MMP-9 were 7.16, 7.72 and 6.97, respectively.

Regarding `CCc1ccc(C(=O)CCCC(CC(=O)c2ccc(-c3ccc(Cl)cc3)cc2)C(=O)O)cc1` (stereo not drawn) [XIV, 4'-chloro-α-[4-(4-ethylphenyl)-4-oxobutyl]-γ-oxo-[1,1'-biphenyl]-4-butanoic acid], the pIC50 against MMP-3 is 7.05; against MMP-2, 7.53; at MMP-9, 6.90.

With `CC(C)c1ccc(C(=O)CCCC(CC(=O)c2ccc(-c3ccc(Cl)cc3)cc2)C(=O)O)cc1` (stereo not drawn) [Compound XV, 4'-chloro-α-[4-[4-(1-methylethyl)phenyl]-4-oxobutyl]-γ-oxo-[1,1'-biphenyl]-4-butanoic acid], the pIC50 was 6.89 on MMP-3, 7.45 against MMP-2 and 6.88 against MMP-9.

Turning to `O=C(CCCC(CC(=O)c1ccc(-c2ccc(Cl)cc2)cc1)C(=O)O)c1ccc(Oc2ccccc2)cc1` (stereo not drawn) [VII], the results for the pIC50 against MMP-3, on MMP-2 and at MMP-9 were 6.44, 6.88 and 7.18, respectively.

With `O=C(CCCC(CC(=O)c1ccc(-c2ccc(Cl)cc2)cc1)C(=O)O)c1ccccc1` (stereo not drawn) [I, 4'-chloro-y-oxo-α-(4-oxo-4-phenylbutyl)-[1,1'-biphenyl]-4-butanoic acid], the values for the pIC50 against MMP-3, against MMP-2 and against MMP-9 were 7.19, 8.00 and 7.18, respectively.

On to `COc1ccccc1C(=O)CCCC(CC(=O)c1ccc(-c2ccc(Cl)cc2)cc1)C(=O)O` (stereo not drawn) [Compound XVI, 4'-chloro-α-[4-(2-methoxyphenyl)-4-oxobutyl]-γ-oxo-[1,1'-biphenyl]-4-butanoic acid], for which the pIC50 is 7.32 against MMP-3, 7.58 at MMP-2 and 6.82 on MMP-9.

As for `CC(C)(C)c1ccc(C(=O)CCCC(CC(=O)c2ccc(-c3ccc(Cl)cc3)cc2)C(=O)O)cc1` (stereo not drawn) [XIII], the results for the pIC50 against MMP-3, at MMP-2 and against MMP-9 were 6.65, 7.15 and 6.78, respectively.

Regarding `O=C(CCC(CC(=O)c1ccc(-c2ccc(Cl)cc2)cc1)C(=O)O)c1ccccc1` (stereo not drawn) [II, 4'-chloro-y-oxo-α-(3-oxo-3-phenylpropyl)-[1,1'-biphenyl]-4-butanoic acid], the pIC50 is 7.02 against MMP-3, 8.02 against MMP-2 and 6.90 on MMP-9.

Take `O=C(CCCCC(CC(=O)c1ccc(-c2ccc(Cl)cc2)cc1)C(=O)O)c1ccccc1` (stereo not drawn) [III, 4'-chloro-γ-oxo-α-(5-oxo-5-phenylpentyl)-[1,1'-biphenyl]-4-butanoic acid]: the pIC50 is 7.21 against MMP-3, 8.12 on MMP-2 and 7.28 against MMP-9.

Take `O=C(CCCC(CC(=O)c1ccc(-c2ccc(Cl)cc2)cc1)C(=O)O)c1ccc(Br)cc1` (stereo not drawn) [IX]: the pIC50 against MMP-3 was 6.90; against MMP-2 it was 7.55; at MMP-9, 6.88.

Turning to `O=C(CCCCCC(CC(=O)c1ccc(-c2ccc(Cl)cc2)cc1)C(=O)O)c1ccccc1` (stereo not drawn) [IV, 4'-chloro-γ-oxo-α-(6-oxo-6-phenylhexyl)-[1,1'-biphenyl]-4-butanoic acid], the pIC50 on MMP-3 was 6.96; at MMP-2 it was 7.47; on MMP-9, 6.76.

On to `Cc1ccc(C(=O)CCCC(CC(=O)c2ccc(-c3ccc(Cl)cc3)cc2)C(=O)O)cc1C` (stereo not drawn) [XI], for which the pIC50 is 6.98 on MMP-3, 7.32 against MMP-2 and 6.98 against MMP-9.
